Data published in patent US4757139A, “5-fluoro-2'-deoxyuridine derivative, processes for preparing same and antitumor composition containing the same” (Teijin Limited, priority 1983, dated 1988).
Where two headings read alike, the source gives them in different places.

Experiments:
[1] = test system: mouse leukemia cells L1210; assay: Antitumor activity against mouse leukemia L1210, intraperitoneal administration; conditions: for Max. ILS (%) / ILS30 (dose required to increase lifespan 30%): i.p. once a day for 5 consecutive days
Excerpt: Antitumor activity of 5-fluoro-2'-deoxyuridine derivatives (in intraperitoneal administration)
Experiments were made with the 5-fluoro-2'-deoxyuridine derivatives of this invention in order to know its antitumor effect against mouse leukemia cells L1210 in comparison with its parent compound 5-fluoro-2'-deoxyuridine and other known antitumor agents.
BDF1 mice (male, 6-week-old, Ca 24 g, in groups of 5 mice), which were abdominally implanted with 10^5 cells of mouse leukemia L1210, which had been collected after 7-day cultivation in other mice, were used in the experiments.
The respective agents were given to the experimental mice intraperitoneally once a day for 5 consecutive days starting 24 hours after the implantation of tumor cells.
The antitumor effect of the respective agents were indicated by the rate of increase in the length of the survival period obtained from the groups given the agents in contrast with the length of the survival period of the control group (not given the agents).
The dose, which is required to increase the lifespan of the experimental mice 30% as compared with the control group, is indicated by ILS30 and the dose, which is required to effect the maximum increase of lifespan (Max. ILS(%)), is indicated by ILS max. ILS max./ILS30 is to represent the therapeutic index which indicates the safety of the agents.

[2] = Rate of hydrolysis of 5-fluoro-2'-deoxyuridine derivatives by esterase; type: in vitro ADME, porcine; conditions: pig, liver esterase, pH 7.00, 37° C., read-out: t 1/2 (time for 1/2 of the derivative to be converted into parent compound)
Description: Rate of hydrolysis of 5-fluoro-2'-deoxyuridine derivatives by esterase […] A 10 μg/ml isotonic solution of the experimental compound in a phosphate buffer (pH 7.00) was prepared and the […] (manufactured by Sigma) extracted from the porcine liver was added to the solution at 37° C. in such a way as to provide the enzyme concentration ranging from 0.03 units/ml to 150 units/ml. Then the sample (10 μl) was injected into an HPLC column periodically to determine the amount of 5-fluoro-2'-deoxyuridine release by the enzyme reaction.

[3] = test system: mouse leukemia L1210; assay: Antitumor activity against mouse leukemia L1210, oral administration; type: in vivo, BDF1 mice; conditions: for Antitumor effect in oral administration compared with 5-fluoro-2'-deoxyuridine and 3',5'-dioctanoyl-5-fluoro-2'-deoxyuridine: L1210-bearing mice, result in words
Description: (§1) The respective agents were administered orally three times, i.e. on the first day, third day, and fifth day, starting 24 hours after the implantation of tumor cells.

[4] = Change in body weight of L1210-bearing mice, oral administration; type: in vivo, BDF1 mice; conditions: days 1-4
Description: as §1

[5] = Release of FUdR from the compound due to the enzyme system in the plasma; type: in vitro ADME; conditions: 4×10^-5 M compound (FUdR 9.85 μg/ml), 20% rat plasma, pH 7.0, 37° C.
Description: Behavior to release FUdR from the compound due to the enzyme system in the plasma
The release rates of 5-fluoro-2'-deoxyuridine (FUdR) from the compound of this invention at 37° C. in the rat plasma (20%), diluted with 0.1M phosphate buffer, pH 7.0, were measured.
The compound of this invention was added to the plasma diluted with an isotonic solution of phosphate buffer to a concentration of 4×10^-5 M (corresponding to FUdR 9.85 μg/ml) and was incubated at 37° C. The sample (10 μl) was injected into an HPLC column periodically to determine the amount (μg/ml) of 5-fluoro-2'-deoxyuridine released by the enzymatic reaction.

[6] = pH 7, enzyme concentration 6.0 units/ml
[7] = days 1, 3, 5, dose 10 mg/kg/day
[8] = days 1, 3, 5, dose 30 mg/kg/day
[9] = days 1, 3, 5, dose 100 mg/kg/day
[10] = days 1, 3, 5, dose 300 mg/kg/day
[11] = pH 7, enzyme concentration 150.0 units/ml
[12] = pH 7, enzyme concentration 0.045 units/ml

Row | Compound | Max. ILS (%) ([1]; L1210-bearing BDF1 mice) | Therapeutic index (ILS max./ILS30) ([1]; mouse, in vivo, ip) | ILS30 (dose required to increase lifespan 30%) ([1]; L1210-bearing BDF1 mice) [µmol·days/kg] | ILS (%) [3, 7] [%] | ILS (%) [3, 8] [%] | ILS (%) [3, 9] [%] | ILS (%) [3, 10] [%] | Change in body weight (1-4 d, g/mouse) ([4]; dose 10 mg/kg/day) | Change in body weight (1-4 d, g/mouse) ([4]; dose 30 mg/kg/day) | Change in body weight (1-4 d, g/mouse) ([4]; dose 100 mg/kg/day) [g/mouse] | Change in body weight (1-4 d, g/mouse) ([4]; dose 300 mg/kg/day) [g/mouse] | Release rate of 5-fluoro-2'-deoxyuridine ([5]; after 100 min) [µg/mL] | also measured
1 | O=C(O)CCCCC(=O)OC[C@H]1O[C@@H](n2cc(F)c(=O)[nH]c2=O)C[C@@H]1OC(=O)CCCCC(=O)O [3',5'-diadipoyl-5-fluoro-2'-deoxyuridine] | 58 | 20.0 |  |  |  |  |  |  |  |  |  |  | half-life [2, 6]: 439 min; half-life ([2]; pH 7, enzyme concentration 12.0 units/ml): 216 min
2 | CCCC(=O)OC[C@H]1O[C@@H](n2cc(F)c(=O)[nH]c2=O)C[C@@H]1OC(=O)CCC [3',5'-dibutyryl-5-fluoro-2'-deoxyuridine] |  |  |  |  |  |  |  |  |  |  |  |  | half-life ([2]; pH 7, enzyme concentration 0.75 units/ml): 42.4 min; half-life ([2]; pH 7, enzyme concentration 1.50 units/ml): 21.7 min
3 | CCCCCCCCCC(=O)OC[C@H]1O[C@@H](n2cc(F)c(=O)[nH]c2=O)C[C@@H]1OC(=O)CCCCCCCCC [3',5'-didecanoyl-5-fluoro-2'-deoxyuridine] | 52 | 10.0 | 18 | 7 | 26 | 15 | 20 | -0.8 g/mouse | -1.4 g/mouse | -2.4 | -3.8 | 4.7 | Antitumor effect in oral administration compared with 5-fluoro-2'-deoxyuridine and 3',5'-dioctanoyl-5-fluoro-2'-deoxyuridine [3]: much higher antitumor effect; half-life ([2]; pH 7, enzyme concentration 0.3 units/ml): 140 min; half-life ([2]; pH 7, enzyme concentration 0.6 units/ml): 72 min; Release rate of 5-fluoro-2'-deoxyuridine ([5]; after 200 min): 6.7 µg/mL; Release rate of 5-fluoro-2'-deoxyuridine ([5]; after 300 min): 7.8 µg/mL; Release rate of 5-fluoro-2'-deoxyuridine ([5]; after 400 min): 8.5 µg/mL; Release rate of 5-fluoro-2'-deoxyuridine ([5]; after 500 min): 9.3 µg/mL
4 | CCCCCCCCCCCC(=O)OC[C@H]1O[C@@H](n2cc(F)c(=O)[nH]c2=O)C[C@@H]1OC(=O)CCCCCCCCCCC [3',5'-didodecanoyl-5-fluoro-2'-deoxyuridine] | 62 | 45.0 | 1.0 | 0 | 5 | 15 | 40 | +1.0 g/mouse | +1.0 g/mouse | 0 | -2.6 | 1.2 | Antitumor effect in oral administration compared with 5-fluoro-2'-deoxyuridine and 3',5'-dioctanoyl-5-fluoro-2'-deoxyuridine [3]: much higher antitumor effect; half-life [2, 11]: 4000 min; Release rate of 5-fluoro-2'-deoxyuridine ([5]; after 200 min): 2.2 µg/mL; Release rate of 5-fluoro-2'-deoxyuridine ([5]; after 300 min): 2.9 µg/mL; Release rate of 5-fluoro-2'-deoxyuridine ([5]; after 400 min): 3.8 µg/mL; Release rate of 5-fluoro-2'-deoxyuridine ([5]; after 500 min): 4.2 µg/mL
5 | O=C(O)CCCC(=O)OC[C@H]1O[C@@H](n2cc(F)c(=O)[nH]c2=O)C[C@@H]1OC(=O)CCCC(=O)O [3',5'-diglutaryl-5-fluoro-2'-deoxyuridine] |  |  |  |  |  |  |  |  |  |  |  |  | half-life [2, 11]: 437 min
6 | CCCCCC(=O)OC[C@H]1O[C@@H](n2cc(F)c(=O)[nH]c2=O)C[C@@H]1OC(=O)CCCCC [3',5'-dihexanoyl-5-fluoro-2'-deoxyuridine, reference compound] | 38 | 4.3 | 10 |  |  |  |  |  |  |  |  | 7.8 | half-life [2, 12]: 32.5 min; half-life ([2]; pH 7, enzyme concentration 0.075 units/ml): 24 min; half-life ([2]; pH 7, enzyme concentration 0.15 units/ml): 10 min; Release rate of 5-fluoro-2'-deoxyuridine ([5]; after 200 min): 9.85 µg/mL
7 | CCCCCCCC(=O)OC[C@H]1O[C@@H](n2cc(F)c(=O)[nH]c2=O)C[C@@H]1OC(=O)CCCCCCC [3',5'-dioctanoyl-5-fluoro-2'-deoxyuridine, reference compound] |  |  |  | -5 | 3 | -5 | 5 | +1.8 g/mouse | +1.6 g/mouse | -2.8 | -2.2 | 9.85 | half-life ([2]; pH 7, enzyme concentration 0.03 units/ml): 18.2 min; half-life [2, 12]: 15.6 min
8 | CCCCCCCCCCCCCCCC(=O)OC[C@H]1O[C@@H](n2cc(F)c(=O)[nH]c2=O)C[C@@H]1OC(=O)CCCCCCCCCCCCCCC [3',5'-dipalmitoyl-5-fluoro-2'-deoxyuridine, reference compound] | 55 | 5.0 | 0.8 |  |  |  |  |  |  |  |  |  | 
9 | CCC(=O)OC[C@H]1O[C@@H](n2cc(F)c(=O)[nH]c2=O)C[C@@H]1OC(=O)CC [3',5'-dipropanoyl-5-fluoro-2'-deoxyuridine] |  |  |  |  |  |  |  |  |  |  |  |  | half-life ([2]; pH 7, enzyme concentration 3.0 units/ml): 47.4 min; half-life [2, 6]: 24.2 min
10 | O=C(O)CCC(=O)OC[C@H]1O[C@@H](n2cc(F)c(=O)[nH]c2=O)C[C@@H]1OC(=O)CCC(=O)O [3',5'-disuccinyl-5-fluoro-2'-deoxyuridine] |  |  |  |  |  |  |  |  |  |  |  |  | half-life [2, 11]: 3220 min
11 | CCCCCCCCCCCCCC(=O)OC[C@H]1O[C@@H](n2cc(F)c(=O)[nH]c2=O)C[C@@H]1OC(=O)CCCCCCCCCCCCC [3',5'-ditetradecanoyl-5-fluoro-2'-deoxyuridine] | 61 |  |  | 27 | 33 | 17 |  | -0.8 g/mouse | -1.4 g/mouse | -2.4 |  |  | Antitumor effect in oral administration compared with 5-fluoro-2'-deoxyuridine and 3',5'-dioctanoyl-5-fluoro-2'-deoxyuridine [3]: much higher antitumor effect; ILS (%) ([3]; days 1, 3, 5, dose 1 mg/kg/day): 3%; ILS (%) ([3]; days 1, 3, 5, dose 3 mg/kg/day): 3%; Change in body weight (1-4 d, g/mouse) ([4]; dose 1 mg/kg/day): +2.2 g/mouse; Change in body weight (1-4 d, g/mouse) ([4]; dose 3 mg/kg/day): +2.0 g/mouse
12 | O=c1[nH]c(=O)n([C@H]2C[C@H](O)[C@@H](CO)O2)cc1F [5-fluoro-2'-deoxyuridine] | 54 |  | 200 | 15 | 10 | 15 | 10 | +0.6 g/mouse | +1.8 g/mouse | -4.2 | -5.2 |  | Therapeutic index (ILS max./ILS30) ([1]; i.p., L1210-bearing BDF1 mice): 2.0
